Measurements published in ChEMBL document CHEMBL1201862, “PubChem BioAssay data set” (2004).
Activity calls are given as the source filed them.

How the values were obtained:
[1] = tested on: HEK293; assay: EBV LMP1 TES2 canonical NF-kB signalling blockers – cell-based, HEK293, luciferase, cherry-pick, dose response (AID 588343); type: functional; conditions: Homo sapiens
[2] = tested on: H9c2; assay: cells; type: functional, cell-based; conditions: Rattus norvegicus, H9c2, Myocardium;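 also: confirmatory concentration-response retest of ultra-high-throughput screening hits for modulation of myocardial damage; cell death induced by hydrogen peroxide oxidative stress; compound pretreatment for 60 min then peroxide exposure for 2 h; potency is for protecting the cells against peroxide damage rather than for killing them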
[3] = target: Dual specificity tyrosine-phosphorylation-regulated kinase 1A (Rattus norvegicus, UniProt Q63470); type: biochemical, Homo sapiens
[4] = target: Dual specificity protein kinase CLK1 (Homo sapiens, UniProt P49759); assay: inhibition of human CLK1 activity – biochemical, cherry-picked samples, selectivity assay for Dyrk1A inhibitor project, dose response (AID 588811)
Chain of Dual specificity protein kinase CLK1 (P49759 whole entry): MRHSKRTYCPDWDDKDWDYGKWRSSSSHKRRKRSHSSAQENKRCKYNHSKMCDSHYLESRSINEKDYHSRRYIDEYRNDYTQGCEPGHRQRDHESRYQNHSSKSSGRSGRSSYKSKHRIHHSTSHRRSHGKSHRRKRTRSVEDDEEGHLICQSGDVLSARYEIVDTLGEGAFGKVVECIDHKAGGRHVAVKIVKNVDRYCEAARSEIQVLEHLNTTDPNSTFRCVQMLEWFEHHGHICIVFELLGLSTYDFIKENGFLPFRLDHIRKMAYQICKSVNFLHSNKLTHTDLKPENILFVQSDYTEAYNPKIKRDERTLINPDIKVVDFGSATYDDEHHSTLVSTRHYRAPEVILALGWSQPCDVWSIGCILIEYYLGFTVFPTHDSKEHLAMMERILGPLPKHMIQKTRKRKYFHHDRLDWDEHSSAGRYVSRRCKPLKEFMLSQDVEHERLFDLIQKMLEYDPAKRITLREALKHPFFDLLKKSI

[5] = target: Lysine-specific demethylase 4A (Homo sapiens, UniProt O75164); assay: inhibition of JMJD2A H3K9me3 demethylation – biochemical, DELFIA europium, cherry-picked samples, selectivity assay for GASC-1 inhibitor project, dose response (AID 488840)
Chain of Lysine-specific demethylase 4A (O75164 whole entry): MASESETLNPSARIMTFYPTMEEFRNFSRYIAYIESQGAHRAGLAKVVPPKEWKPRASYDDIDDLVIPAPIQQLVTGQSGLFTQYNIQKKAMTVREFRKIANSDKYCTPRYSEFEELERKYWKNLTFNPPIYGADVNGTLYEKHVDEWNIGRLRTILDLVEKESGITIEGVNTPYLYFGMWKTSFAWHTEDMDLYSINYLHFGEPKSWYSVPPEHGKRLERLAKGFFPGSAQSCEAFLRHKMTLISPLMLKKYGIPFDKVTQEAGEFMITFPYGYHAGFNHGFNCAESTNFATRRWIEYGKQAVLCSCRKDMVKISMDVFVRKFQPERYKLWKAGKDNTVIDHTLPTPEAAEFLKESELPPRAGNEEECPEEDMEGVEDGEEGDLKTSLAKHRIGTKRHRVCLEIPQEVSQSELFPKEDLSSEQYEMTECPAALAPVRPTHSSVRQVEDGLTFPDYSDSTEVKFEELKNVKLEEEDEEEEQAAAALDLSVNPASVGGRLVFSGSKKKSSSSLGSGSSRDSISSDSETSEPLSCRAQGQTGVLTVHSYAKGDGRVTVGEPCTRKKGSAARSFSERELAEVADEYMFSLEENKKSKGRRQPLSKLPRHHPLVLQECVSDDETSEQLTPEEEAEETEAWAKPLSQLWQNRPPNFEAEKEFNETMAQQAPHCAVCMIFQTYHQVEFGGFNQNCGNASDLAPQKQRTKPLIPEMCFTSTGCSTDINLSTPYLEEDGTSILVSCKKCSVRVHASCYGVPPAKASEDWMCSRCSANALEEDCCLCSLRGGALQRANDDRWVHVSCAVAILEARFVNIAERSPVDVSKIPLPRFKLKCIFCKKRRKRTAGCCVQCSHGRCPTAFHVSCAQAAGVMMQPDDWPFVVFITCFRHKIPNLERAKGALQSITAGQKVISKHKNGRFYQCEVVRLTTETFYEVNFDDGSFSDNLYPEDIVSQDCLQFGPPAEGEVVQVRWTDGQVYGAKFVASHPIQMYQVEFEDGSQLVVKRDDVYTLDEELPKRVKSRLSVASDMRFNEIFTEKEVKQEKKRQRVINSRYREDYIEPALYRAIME

[6] = target: Serine/threonine-protein phosphatase (Candida dubliniensis (strain CD36 / CBS 7987 / NCPF 3949 / NRRLY-17841) (Yeast), UniProt B9W6M3); assay: Fluorescence Cell-Based Secondary Assay to Identify Inhibitors of Calcineurin. [Related pubchem assays (depositor defined):AID1979, AID2007]; type: functional
Chain of Serine/threonine-protein phosphatase (B9W6M3 whole entry): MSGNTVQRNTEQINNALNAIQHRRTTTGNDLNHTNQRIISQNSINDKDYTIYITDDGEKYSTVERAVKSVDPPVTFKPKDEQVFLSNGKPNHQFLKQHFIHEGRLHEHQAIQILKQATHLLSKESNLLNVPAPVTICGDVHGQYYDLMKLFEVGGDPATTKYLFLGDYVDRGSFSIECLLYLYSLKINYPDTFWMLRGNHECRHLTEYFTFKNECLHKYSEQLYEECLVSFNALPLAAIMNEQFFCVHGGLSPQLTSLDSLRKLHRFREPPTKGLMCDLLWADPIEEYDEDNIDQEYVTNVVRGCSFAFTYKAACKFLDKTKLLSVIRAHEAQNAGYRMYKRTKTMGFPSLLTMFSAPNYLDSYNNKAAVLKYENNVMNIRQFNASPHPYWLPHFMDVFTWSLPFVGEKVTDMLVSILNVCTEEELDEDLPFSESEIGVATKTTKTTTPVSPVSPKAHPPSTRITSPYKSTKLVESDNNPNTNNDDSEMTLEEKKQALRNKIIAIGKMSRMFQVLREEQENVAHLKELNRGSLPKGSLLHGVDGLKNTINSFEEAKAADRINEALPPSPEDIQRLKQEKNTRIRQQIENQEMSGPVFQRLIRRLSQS

[7] = viability loss in HEK293 cells – cell-based, plate reader, cherry-picked samples, cytotoxicity control, dose response (AID 743446); type: functional
[8] = A549 cell cytotoxicity, dose response, cytotoxicity control, plate reader, cherry-pick, antagonist series (AID 743412); type: functional, cell-based
[9] = target: T1, Microphthalmia-associated transcription factor (Homo sapiens, UniProt O75030); assay: reducers of TRPM1 reporter luminescence, concentration series – cell-based, SK-MEL-5, cherry-picked, set 3, MITF inhibitor project, dose response (AID 493073); type: functional;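 also: SK-MEL-5 melanoma cells with luciferase driven by the MITF target TRPM1 promoter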
T1 sequence (O75030 whole entry): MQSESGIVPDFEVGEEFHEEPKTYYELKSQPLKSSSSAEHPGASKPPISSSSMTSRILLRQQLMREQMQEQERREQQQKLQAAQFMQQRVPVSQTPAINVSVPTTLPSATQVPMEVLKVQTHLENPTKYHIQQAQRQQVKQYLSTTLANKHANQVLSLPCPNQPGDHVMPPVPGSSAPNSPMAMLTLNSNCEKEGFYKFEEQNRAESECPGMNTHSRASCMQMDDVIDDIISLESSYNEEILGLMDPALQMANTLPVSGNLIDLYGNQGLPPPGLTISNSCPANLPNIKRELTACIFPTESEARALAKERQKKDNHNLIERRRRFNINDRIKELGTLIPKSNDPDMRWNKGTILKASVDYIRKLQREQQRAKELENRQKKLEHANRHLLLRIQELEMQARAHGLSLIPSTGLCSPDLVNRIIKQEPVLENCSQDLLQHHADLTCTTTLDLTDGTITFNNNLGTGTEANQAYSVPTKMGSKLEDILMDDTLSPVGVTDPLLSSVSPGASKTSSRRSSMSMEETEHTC

[10] = target: Paired box protein Pax-8 (Homo sapiens, UniProt Q06710); assay: PAX8 transcriptional activity inhibition in RMG-I – RMG-I cells, luciferase, cherry-pick, dose response (AID 687027); type: functional, cell-based;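 also: luciferase reporter driven by Pax8 target thyroperoxidase promoter measured by SteadyGlo luminescence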
Chain of Paired box protein Pax-8 (Q06710 whole entry): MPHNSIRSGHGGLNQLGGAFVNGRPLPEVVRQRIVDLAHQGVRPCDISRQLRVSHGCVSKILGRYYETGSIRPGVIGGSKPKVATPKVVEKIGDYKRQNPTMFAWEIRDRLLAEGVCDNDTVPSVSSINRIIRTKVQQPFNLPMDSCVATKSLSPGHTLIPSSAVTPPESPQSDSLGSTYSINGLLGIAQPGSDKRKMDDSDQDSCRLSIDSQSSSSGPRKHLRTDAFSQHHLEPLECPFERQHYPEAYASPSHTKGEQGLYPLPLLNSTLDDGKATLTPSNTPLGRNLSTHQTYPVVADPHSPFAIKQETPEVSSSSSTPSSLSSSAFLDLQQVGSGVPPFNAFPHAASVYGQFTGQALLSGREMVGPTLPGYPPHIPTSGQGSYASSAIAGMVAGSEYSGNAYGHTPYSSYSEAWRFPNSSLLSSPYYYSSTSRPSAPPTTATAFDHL

[11] = blockade of melanocortin 4 receptor signaling – cell-based, plate reader, cherry pick, counter-screen for LGR2 antagonist project, dose response (AID 743444); type: functional;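 also: transfected HEK 293 cells stimulated with alpha-MSH peptide; potency of inhibitors of the alpha-MSH evoked signal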
[12] = toxicity toward HepG2 liver cells – cell-based, plate reader, cherry-pick, antagonist series, cytotoxicity control, dose response (AID 743416); type: functional
[13] = tested on: Jurkat; assay: blockers of NF-kB activation in T cells – Jurkat, luciferase reporter, luminescence, B- and T-cell, dose response (AID 489004); type: functional, cell-based; conditions: Homo sapiens;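 also: NF-kB luciferase reporter Jurkat cells stimulated with PMA plus ionomycin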
[14] = HEK-293T viability loss, compound-treated – cell-based, uHTS hits, cytotoxicity control for B/T-cell NF-kB inhibitor project, dose response (AID 489019); type: functional;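 also: IC50 reflects cytotoxicity as loss of cell viability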
[15] = blockers of bursicon-stimulated LGR2 cAMP reporter – cell-based, HEK293, CRE-luciferase reporter, cherry pick, set 2, dose response (AID 743343); type: functional;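 also: transfected cells were stimulated with diluted bursicon conditioned medium after compound addition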
[16] = general cell-killing toxicity readout – plate reader, dry powder samples, cytotoxicity control for PAX8 inhibitor project, dose response (AID 743021); type: functional, cell-based
[17] = target: G-protein coupled receptor 55 (Homo sapiens, UniProt Q9Y2T6); assay: blockers of GPR55 signalling, imaged – imaging, image-based, counter-screen for GPR35 antagonist project, SAR follow-up (AID 2397); type: functional
Chain of G-protein coupled receptor 55 (Q9Y2T6 whole entry): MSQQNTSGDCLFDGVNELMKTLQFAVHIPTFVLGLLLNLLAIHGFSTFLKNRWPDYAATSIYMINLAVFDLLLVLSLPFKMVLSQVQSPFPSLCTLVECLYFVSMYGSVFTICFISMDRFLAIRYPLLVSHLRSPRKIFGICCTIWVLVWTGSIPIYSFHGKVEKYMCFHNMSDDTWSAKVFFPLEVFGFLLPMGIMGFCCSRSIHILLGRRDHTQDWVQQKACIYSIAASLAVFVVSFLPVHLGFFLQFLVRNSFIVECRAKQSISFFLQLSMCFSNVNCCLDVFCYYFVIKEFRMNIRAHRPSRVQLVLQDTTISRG

[18] = target: G-protein coupled receptor 35 (Homo sapiens, UniProt Q9HC97); assay: SAR Analysis for the identification of Selective Antagonists of ERK1/2 Activity in GPR35-Overexpressing U2OS Cells. [Related pubchem assays: 2079, 2058 ]; type: functional, cell-based
Chain of G-protein coupled receptor 35 (Q9HC97 whole entry): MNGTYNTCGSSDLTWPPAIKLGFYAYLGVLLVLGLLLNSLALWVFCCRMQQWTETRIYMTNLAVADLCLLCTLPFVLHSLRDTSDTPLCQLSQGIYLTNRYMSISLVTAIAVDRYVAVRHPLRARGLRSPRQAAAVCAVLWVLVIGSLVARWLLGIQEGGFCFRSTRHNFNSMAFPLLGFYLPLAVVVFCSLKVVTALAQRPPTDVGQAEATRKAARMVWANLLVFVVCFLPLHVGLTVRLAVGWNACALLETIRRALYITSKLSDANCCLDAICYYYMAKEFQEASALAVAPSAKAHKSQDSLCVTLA

[19] = target: Nuclear receptor subfamily 0 group B member 1 (Homo sapiens, UniProt P51843); assay: Luminescence-based cell-based high throughput dose response assay for inhibitors of the orphan nuclear receptor subfamily 0, group B, member 1 (DAX1; NR0B1). [Related pubchem assays (depositor defined):AID504766, AID504790]; type: functional
Chain of Nuclear receptor subfamily 0 group B member 1 (P51843 whole entry): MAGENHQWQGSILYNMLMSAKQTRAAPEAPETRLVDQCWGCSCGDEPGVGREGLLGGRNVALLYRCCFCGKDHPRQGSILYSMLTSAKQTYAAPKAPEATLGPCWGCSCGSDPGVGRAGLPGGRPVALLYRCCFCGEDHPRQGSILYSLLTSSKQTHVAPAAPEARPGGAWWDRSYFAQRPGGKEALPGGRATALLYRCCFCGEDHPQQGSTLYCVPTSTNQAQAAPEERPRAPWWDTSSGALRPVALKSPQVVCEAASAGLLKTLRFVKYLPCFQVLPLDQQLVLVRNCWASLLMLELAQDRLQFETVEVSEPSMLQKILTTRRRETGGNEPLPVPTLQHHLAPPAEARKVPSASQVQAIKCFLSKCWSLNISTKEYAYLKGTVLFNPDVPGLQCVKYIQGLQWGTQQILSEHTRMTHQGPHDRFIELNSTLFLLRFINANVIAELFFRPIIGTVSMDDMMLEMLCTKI

[20] = tested on: HEK293; assay: cells; type: functional, cell-based; conditions: Homo sapiens
[21] = target: Phospholipase A2 (Homo sapiens, UniProt P04054); type: functional;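 also: confirmatory dose-response counterscreen on phospholipase A2, testing hits that came from an ultra-high-throughput screen for ATG4B inhibitors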
Chain of Phospholipase A2 (P04054 whole entry): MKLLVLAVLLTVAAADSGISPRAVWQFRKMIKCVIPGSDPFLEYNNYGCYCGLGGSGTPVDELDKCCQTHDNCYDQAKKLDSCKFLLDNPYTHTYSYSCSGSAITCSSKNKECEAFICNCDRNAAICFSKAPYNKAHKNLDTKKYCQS

[22] = target: Cysteine protease ATG4B (Homo sapiens, UniProt Q9Y4P1); type: functional;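 also: Fluorescence-based dose-response confirmation assay measuring inhibition of ATG4B activity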
Chain of Cysteine protease ATG4B (Q9Y4P1 whole entry): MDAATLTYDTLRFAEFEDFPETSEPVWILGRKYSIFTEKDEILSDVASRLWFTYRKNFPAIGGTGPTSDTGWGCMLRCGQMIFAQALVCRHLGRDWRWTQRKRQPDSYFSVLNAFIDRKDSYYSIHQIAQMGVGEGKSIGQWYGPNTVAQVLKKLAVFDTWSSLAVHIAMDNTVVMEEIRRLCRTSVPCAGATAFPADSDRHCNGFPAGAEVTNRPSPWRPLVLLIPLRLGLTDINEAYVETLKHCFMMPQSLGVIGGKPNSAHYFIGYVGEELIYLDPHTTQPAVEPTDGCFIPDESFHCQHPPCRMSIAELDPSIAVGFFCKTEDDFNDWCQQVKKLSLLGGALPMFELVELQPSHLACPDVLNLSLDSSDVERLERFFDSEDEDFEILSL

[23] = target: Tyrosine-protein phosphatase non-receptor type 7 (Homo sapiens, UniProt P35236); type: functional
Chain of Tyrosine-protein phosphatase non-receptor type 7 (P35236 whole entry): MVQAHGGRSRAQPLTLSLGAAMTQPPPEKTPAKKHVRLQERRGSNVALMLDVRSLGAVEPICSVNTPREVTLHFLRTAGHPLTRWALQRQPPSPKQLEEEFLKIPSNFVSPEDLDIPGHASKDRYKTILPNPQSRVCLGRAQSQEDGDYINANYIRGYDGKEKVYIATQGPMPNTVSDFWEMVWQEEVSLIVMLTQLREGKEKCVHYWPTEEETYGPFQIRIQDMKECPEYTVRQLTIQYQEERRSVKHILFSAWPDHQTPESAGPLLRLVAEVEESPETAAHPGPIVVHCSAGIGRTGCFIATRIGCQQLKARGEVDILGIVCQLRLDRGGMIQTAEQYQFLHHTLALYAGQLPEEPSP

[24] = target: T2, Dual specificity protein phosphatase 6 (Rattus norvegicus, UniProt Q64346)
T2 sequence (Q64346 whole entry): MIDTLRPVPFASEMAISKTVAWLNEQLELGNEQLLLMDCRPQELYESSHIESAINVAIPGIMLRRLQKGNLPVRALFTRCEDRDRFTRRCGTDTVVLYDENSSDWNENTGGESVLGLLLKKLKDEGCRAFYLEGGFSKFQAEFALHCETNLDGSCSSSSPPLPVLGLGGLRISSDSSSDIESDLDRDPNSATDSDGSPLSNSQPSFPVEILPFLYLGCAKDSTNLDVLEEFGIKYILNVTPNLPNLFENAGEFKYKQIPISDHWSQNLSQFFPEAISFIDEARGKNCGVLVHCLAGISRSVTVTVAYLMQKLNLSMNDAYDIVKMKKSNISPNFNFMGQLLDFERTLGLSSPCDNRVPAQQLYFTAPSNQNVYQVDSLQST

[25] = target: T2, Dual specificity protein phosphatase 6; type: functional
[26] = target: Glyceraldehyde-3-phosphate dehydrogenase (Homo sapiens, UniProt P04406)
Chain of Glyceraldehyde-3-phosphate dehydrogenase (P04406 whole entry): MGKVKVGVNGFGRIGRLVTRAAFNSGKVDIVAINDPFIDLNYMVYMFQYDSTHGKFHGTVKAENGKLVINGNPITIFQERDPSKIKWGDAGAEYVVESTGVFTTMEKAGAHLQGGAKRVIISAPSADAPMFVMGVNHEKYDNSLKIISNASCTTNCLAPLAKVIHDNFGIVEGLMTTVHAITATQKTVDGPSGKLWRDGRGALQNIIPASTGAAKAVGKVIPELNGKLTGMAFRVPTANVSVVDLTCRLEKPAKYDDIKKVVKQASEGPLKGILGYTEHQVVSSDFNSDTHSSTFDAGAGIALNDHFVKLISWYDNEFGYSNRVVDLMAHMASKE

With `CCn1nc(C(=O)Nc2nc(-c3ccccn3)cs2)c2ccccc2c1=O` the AC50 [1] was 11.4 µM (active) and the IC50 [2] was 16.2 µM (active).
For `Cc1nc(N)sc1-c1csc(Nc2ccccc2)n1`, the AC50 [3] was 14.4 µM (active) and the AC50 [4] was 18.3 µM (active).
For `CN(C(=O)c1ccc(NC(=O)Cc2ccc(NC(=O)C3CCN(C(=O)C4CCC4)CC3)cc2)cc1)C1CC1`, the AC50 [5] was > 60 µM (inactive).
With `O=C(Nc1nnc(SCc2ccc(Cl)cc2)s1)c1ccc2ccccc2n1` the EC50 [6] was > 285 µM (inactive).
In the case of `CCOc1ccc(NC(=O)Nc2cccc(C(=O)O)c2)cc1`, the AC50 [7] was 40.4 µM (active), the AC50 [8] was 45.1 µM (active) and the AC50 [9] was 1.53 µM (active). The AC50 [10] was 3.85 µM (active), the AC50 [11] was 0.319 µM (active) and the AC50 [12] was > 52 µM (inactive). For the same compound, the IC50 [13] was 0.85 µM (active), the IC50 [14] was > 80 µM (inactive) and the AC50 [15] was 0.303 µM (active). For the same compound, the AC50 [16] was 11.7 µM (active).
In the case of `O=C(Nc1ccc2nc(SCc3ccccc3)sc2c1)c1ccccc1C(=O)N1CCOCC1`, the IC50 [17] was 12.3 µM (inactive) and the IC50 [18] was 4.58 µM (active).
With `Cc1ccc2nc3c(cc2c1)c(NC(=O)c1ccco1)nn3CC(C)C` the IC50 [19] was > 67.5 µM (inactive) and the IC50 [20] was > 67.5 µM (inactive).
In the case of `N#Cc1c(N)[nH]c2ccc(Sc3ccccc3)cc12`, the IC50 [21] was 9.57 µM (active) and the IC50 [22] was 11.5 µM (active).
For `CCC(CC)c1nnc(NC(=O)Cc2cccs2)s1`, the IC50 [23] was 88 µM (active), the IC50 [24] was > 100 µM (inactive) and the IC50 [25] was > 100 µM (inactive). The IC50 [26] was 99.7 µM (active).
